Laboratory results as given in article PMC3629565, “Sphingolipid synthesis and scavenging in the intracellular apicomplexan parasite, Toxoplasma gondii” (Molecular and Biochemical Parasitology, 2013).

Biological target: T1, TgSLS (Toxoplasma gondii, UniProt A0A2U9EWT7)
T1 construct: parasites elsewhere RH, locus tag of ME49), pRS426MET25 in S. cerevisiae YPH499-HIS-GAL-AUR1, CHAPS-washed microsomes; no tag mentioned
T1 sequence (A0A2U9EWT7 1-427): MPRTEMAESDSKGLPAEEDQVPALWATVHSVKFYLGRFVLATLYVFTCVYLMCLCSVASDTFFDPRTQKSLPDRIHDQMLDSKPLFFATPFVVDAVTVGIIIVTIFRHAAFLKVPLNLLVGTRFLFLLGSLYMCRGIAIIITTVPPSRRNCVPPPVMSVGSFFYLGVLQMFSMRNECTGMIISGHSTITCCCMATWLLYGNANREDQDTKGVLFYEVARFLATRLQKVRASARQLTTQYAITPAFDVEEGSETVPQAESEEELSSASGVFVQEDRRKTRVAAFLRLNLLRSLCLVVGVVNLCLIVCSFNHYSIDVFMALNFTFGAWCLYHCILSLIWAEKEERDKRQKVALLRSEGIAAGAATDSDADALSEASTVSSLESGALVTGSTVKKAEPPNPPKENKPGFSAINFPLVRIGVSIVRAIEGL
Assay: IPC formation by CHAPS-washed yeast microsomes, HPTLC fluorescence
Assay type: biochemical
Conditions: acceptor substrate at 5 μM; donor 1 mM bovine liver phosphatidylinositol; 10 mM EDTA, 6 mg/ml BSA, 30 °C, 60 min; labelled compound

How did the “IPC formation by CHAPS-washed yeast microsomes, HPTLC fluorescence” value turn out when CCCCCCCCCCCCC/C=C/[C@@H](O)[C@H](CO)NC(=O)CCCCCNc1ccc([N+](=O)[O-])c2nonc12 [NBD C6-ceramide] was run?
Its value is “reaction of CHAPS-washed TgSLS extract with acceptor substrate NBD-C6-ceramide”.
